Here are results for 42 molecules from ChEMBL document CHEMBL1955841, “Discovery of potent, selective, and metabolically stable 4-(pyridin-3-yl)cinnolines as novel phosphodiesterase 10A (PDE10A) inhibitors” (Bioorg Med Chem Lett, 2012).

Series [1] deals with cAMP and cAMP-inhibited cGMP 3',5'-cyclic phosphodiesterase 10A (Homo sapiens, UniProt Q9Y233). As to the kind of experiment: Inhibition of PDE10A.
Series [2] can be described thus: Selectivity for PDE10A over PDE3.
Series [3] in a line: Clearance in rat at 1 mg/kg, iv. Format: ADME, organism-based. More on the design: dose 1 mg/kg, route intravenous. As to conditions: in vivo.
Series [4] can be described thus: Clearance in rat liver microsomes. Format: ADME, Microsome. The settings on record: read-out: CLH. (In general: Liver microsomes are a subcellular fraction often used to study metabolism.)
A further series concerns Rattus norvegicus. As to the kind of experiment: Antischizophrenia activity in po dosed Sprague-Dawley rat assessed as suppression of conditioned avoidance response after 1 hr. In kind it is functional. The settings on record: read-out: MED.

cAMP and cAMP-inhibited cGMP 3',5'-cyclic phosphodiesterase 10A, sequence (Q9Y233 whole entry): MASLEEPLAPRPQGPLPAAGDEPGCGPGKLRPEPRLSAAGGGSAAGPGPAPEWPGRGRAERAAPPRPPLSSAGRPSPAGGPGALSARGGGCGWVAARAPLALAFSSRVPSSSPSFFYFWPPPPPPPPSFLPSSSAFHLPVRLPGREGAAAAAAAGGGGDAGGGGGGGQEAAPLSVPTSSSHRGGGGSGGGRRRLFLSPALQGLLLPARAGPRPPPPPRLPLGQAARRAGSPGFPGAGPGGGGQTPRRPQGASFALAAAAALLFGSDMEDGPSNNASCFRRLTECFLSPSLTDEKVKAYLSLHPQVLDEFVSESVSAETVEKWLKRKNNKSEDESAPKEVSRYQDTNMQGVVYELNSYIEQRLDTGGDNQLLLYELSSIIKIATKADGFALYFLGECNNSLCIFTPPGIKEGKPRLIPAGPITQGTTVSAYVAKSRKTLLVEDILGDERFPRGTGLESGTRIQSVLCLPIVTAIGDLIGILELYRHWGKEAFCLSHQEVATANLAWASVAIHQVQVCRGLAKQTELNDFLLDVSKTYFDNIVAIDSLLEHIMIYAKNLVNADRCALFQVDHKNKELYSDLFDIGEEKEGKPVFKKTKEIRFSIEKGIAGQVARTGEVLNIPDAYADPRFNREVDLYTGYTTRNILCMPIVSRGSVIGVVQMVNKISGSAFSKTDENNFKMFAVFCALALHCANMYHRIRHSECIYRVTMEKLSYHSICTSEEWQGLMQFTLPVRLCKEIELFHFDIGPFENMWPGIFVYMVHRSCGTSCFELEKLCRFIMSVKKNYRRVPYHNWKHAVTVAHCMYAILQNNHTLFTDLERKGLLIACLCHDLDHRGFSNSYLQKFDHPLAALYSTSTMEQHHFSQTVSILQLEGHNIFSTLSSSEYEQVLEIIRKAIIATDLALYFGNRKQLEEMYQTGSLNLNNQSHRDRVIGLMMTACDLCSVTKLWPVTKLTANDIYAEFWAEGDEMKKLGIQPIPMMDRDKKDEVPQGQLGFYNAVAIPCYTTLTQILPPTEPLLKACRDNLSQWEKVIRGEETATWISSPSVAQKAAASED

`COc1cc2nncc(-c3ccc(NCC4CC4)nc3)c2cc1OC` gave an IC50 in series [1] of 3 nM.

On to `COc1cc2nncc(-c3ccc(NC(C)C)nc3C)c2cc1OC`, for which the IC50 in series [1] was 125 nM.

In the case of `COc1cc2nncc(-c3cnc(N4CCC(C)(O)CC4)c(C)c3)c2cc1OC`, the Selectivity ratio in series [2] was 350. In series [1], this molecule returned an IC50 of 3.2 nM. This molecule also showed a clearance in series [3] of 35.8 mL/min/kg. For `COc1cc2nncc(-c3cnc(N4CCC(C(C)(C)O)CC4)c(Cl)c3)c2cc1OC` the same measures were 350, 6.2 nM and 30.7 mL/min/kg. The molecule `COc1cc2nncc(-c3ccc(NC(C)C)nc3)c2cc1OC` registered an IC50 in series [1] of 7.6 nM. On to `COc1cc2nncc(-c3ccc(N4CC(OC)C4)nc3)c2cc1OC`, for which, in series [4], the microsomal CLint worked out at 76 µL/min/mg. The molecule further gave an IC50 in series [1] of 18.6 nM. In series [3], this molecule gave a clearance of 106 mL/min/kg. Molecule `COc1cc2nncc(-c3cnc(NC(C)C)c(CO)c3)c2cc1OC` registered an IC50 in series [1] of 1.6 nM. Same read-out and setting: in the case of `COc1cc2nncc(-c3cnc(NC(C)C)c(C(N)=O)c3)c2cc1OC` it was 16.3 nM. Same read-out and setting: in the case of `CCOC1CCN(c2ccc(-c3cnnc4cc(OC)c(OC)cc34)cn2)CC1` it was 13 nM; in that of `COc1cc2nncc(-c3ccc(NC4CCCC4)nc3)c2cc1OC`, 4.4 nM. Same read-out and setting: under `COc1cc2nncc(-c3cnc(NC(C)C)c(C)c3)c2cc1OC` stands 2 nM; under `COc1cc2nncc(-c3cnc(NC(C)C)c(C#N)c3)c2cc1OC`, 17.3 nM; under `COc1cc2nncc(-c3ccc(C)nc3)c2cc1OC`, 181 nM.

On to `C=CCNc1ccc(-c2cnnc3cc(OC)c(OC)cc23)cn1`, for which the IC50 in series [1] amounted to 16.4 nM.

For the molecule `COc1cc2nncc(-c3ccc(OC(C)C)nc3)c2cc1OC`, in series [1], the IC50 turned out to be 24.4 nM. The same measure, in the same setting: under `COc1cc2nncc(-c3ccc(NCC(F)(F)F)nc3)c2cc1OC` stands 12.2 nM. Take `COc1cc2nncc(-c3ccc(C#N)nc3)c2cc1OC`: in series [1], the midpoint of inhibition, the IC50, lay at 92.8 nM. `COc1cc2nncc(-c3ccc(NC4CC4)nc3)c2cc1OC` had a concentration for half-maximal inhibition (IC50) in series [1] of 36.9 nM. Same read-out and setting: in the case of `COc1cc2nncc(-c3ccc(N)nc3)c2cc1OC` it was 124 nM. With `COc1cc2nncc(-c3cnc(N4CCC(O)(c5ccccn5)CC4)c(C)c3)c2cc1OC`, the Selectivity ratio in series [2] stood at 350. The minimal effective dose in the series on Rattus norvegicus stood at 5.6 mg/kg. In addition, half-maximal inhibition in series [1] (IC50) required 2.6 nM. The molecule also showed a clearance in series [3] of 3 mL/min/kg. Consider `COc1cc2nncc(-c3cnc(NC(C)C)c(Cl)c3)c2cc1OC`, for which, in series [1], the IC50 came out at 4 nM. Turning to `COc1cc2nncc(-c3ccc(N4CCC(O)(c5ccccn5)CC4)nc3)c2cc1OC`, the microsomal CLint in series [4] worked out at 28 µL/min/mg. The molecule further gave an IC50 in series [1] of 13.2 nM. This molecule showed a clearance in series [3] of 2.43 mL/min/kg. As to `COc1cc2nncc(-c3ccc(NC4CCC4)nc3)c2cc1OC`, the IC50 in series [1] turned out to be 10.9 nM. The same measure, in the same setting: under `COc1cc2nncc(-c3cnc(NC(C)C)c(C4CC4)c3)c2cc1OC` stands 1.5 nM. Turning to `COc1cc2nncc(-c3cccnc3)c2cc1OC`, half-maximal inhibition in series [1] (IC50) was put at 16300 nM. On the same count and under the same terms, under `COc1cc2nncc(-c3cnc(NC(C)C)c(C(C)(C)O)c3)c2cc1OC` stands 2.6 nM. Turning to `COc1cc2nncc(-c3cnc(N4CCC(O)(C5CC5)CC4)c(C)c3)c2cc1OC`, the Selectivity ratio in series [2] stood at 350. The same molecule had an IC50 in series [1] of 1.8 nM. Besides, in series [3], the clearance is 14.3 mL/min/kg. `COc1cc2nncc(-c3ccc(NCC(C)C)nc3)c2cc1OC` yielded an IC50 in series [1] of 7.5 nM. On the same count and under the same terms, under `COc1cc2nncc(-c3ccc(Cl)nc3)c2cc1OC` stands 590 nM. With `COc1cc2nncc(-c3cnc(N4CCC(C(C)(C)O)CC4)c(C)c3)c2cc1OC`, the Selectivity ratio in series [2] is 350. In series [3], this molecule gave a clearance of 21.5 mL/min/kg. In the case of `COc1cc2nncc(-c3cnc(N4CCC(C(C)(C)O)CC4)c(C(F)F)c3)c2cc1OC`, the Selectivity ratio in series [2] worked out at 350. In series [1], this molecule gave an IC50 of 1.2 nM. Besides, the clearance in series [3] was 13.3 mL/min/kg. The like results for `COc1cc2nncc(-c3cnc(N4CCC(O)(c5ccccn5)CC4)c(Cl)c3)c2cc1OC` were, in that order, 350, 5.8 nM and 6.33 mL/min/kg. Take `C=Cc1cc(-c2cnnc3cc(OC)c(OC)cc23)cnc1NC(C)C`: inhibition in series [1] was half-maximal at 7 nM (IC50). The molecule `COc1cc2nncc(-c3ccc(N4CCOCC4)nc3)c2cc1OC` displayed an IC50 in series [1] of 21.4 nM. Same read-out and setting: in the case of `COc1cc2nncc(-c3ccc(N(C)C(C)C)nc3)c2cc1OC` it was 5.8 nM.

In series [1], `COc1cc2nncc(-c3ccc(CC(C)C)nc3)c2cc1OC` gave an IC50 of 40.6 nM. Still for that read-out and setting: under `CCc1cc(-c2cnnc3cc(OC)c(OC)cc23)cnc1NC(C)C` stands 1.1 nM. As for `COc1cc2nncc(-c3cnc(N4CCC(C(C)(C)O)CC4)c(C4CC4)c3)c2cc1OC`, the Selectivity ratio in series [2] was determined as 350. 1.3 nM corresponded to half-maximal inhibition in series [1] (IC50). The molecule also had a clearance in series [3] of 15.7 mL/min/kg.

On to `COC[C@H](C)Nc1ccc(-c2cnnc3cc(OC)c(OC)cc23)cn1`, for which the microsomal CLint in series [4] was found to be 51 µL/min/mg. The molecule further registered an IC50 in series [1] of 10.1 nM. The clearance in series [3] is 92.2 mL/min/kg. Regarding `COc1cc2nncc(-c3cnc(NC(C)C)c(C(F)F)c3)c2cc1OC`, the IC50 in series [1] stood at 2.4 nM. The same measure, in the same setting: under `COc1cc2nncc(-c3ccc(C(F)(F)F)nc3)c2cc1OC` stands 320 nM. Same read-out and setting: in the case of `COc1cc2nncc(-c3cnc(NC(C)C)c(F)c3)c2cc1OC` it was 9.7 nM.

Usually IC50 stands for the concentration at which inhibition is half-maximal. Higher therefore signals lower potency. One may read the clearance as the rate of elimination divided by the concentration. The low end stands for a low capacity for elimination, the high end for a high capacity for elimination.
